Molecules are shown by their SMILES.

By melting point is commonly meant the temperature of the solid-liquid transition. With `NC(=O)[C@@H]1[C@H](Nc2c(Br)cnc3[nH]c(-c4ccoc4)nc23)[C@H]2C=C[C@@H]1C2`, the melting point is 231 to 232 °C. Compound `Cc1cc2c(Cl)ccc(-n3c(=O)cc(C(F)(F)F)n(C)c3=O)c2o1` showed a melting point of 206 to 207 °C. In the case of `COc1ccc(C(C)C)cc1-c1cc(C(=O)NCCc2ccccc2)c(OCc2ccccc2)cc1OCc1ccccc1` it was 138 to 140 °C. In the case of `O=c1cc(-c2cccc(F)c2)oc2ccc(OCCCCCCN3CCC(O)CC3)cc12` it was 136 to 137 °C; in that of `Nc1ccc(CS(=O)(=O)CCO)c(CS(=O)(=O)CCO)c1`, 168 to 171 °C; in that of `COc1ccc(-c2nc(Cn3ccnn3)co2)cc1`, 126 to 127 °C. The figure for `Cc1cc(C)c(S(=O)(=O)ON)c(C)c1` is 90 to 91 °C.

`O=C(O)[C@H](Cc1ccccc1)NS(=O)(=O)c1ccc(N2CCC(Cc3ccccc3)CC2)cc1` gave a melting point of 164 to 165 °C. The figure for `CC(=O)c1cc2cc(O)c(Cl)c(Cl)c2s1` is 199 to 201 °C. `CC#CCOc1ccc(S(=O)(=O)N(C)C(CCCSc2ccc(Cl)cc2)(NC)C(=O)O)cc1` (configuration not stated) returned a melting point of 143 to 145 °C.

`FC(F)(F)c1ccc(-c2ccnc(Nc3cnc4ccccc4c3)c2)cc1` returned a melting point of 207 to 208 °C. The figure for `Cc1cc(-c2ccc(Cl)cc2)cn2c(C(=O)O)cnc12` is 228 °C; for `O=C(Nc1ccc2[nH]ccc2c1)c1cc2cc(F)ccc2n1Cc1cccc(F)c1` it is 158 to 163 °C; for `Cc1ccc(C(=O)O)c2c1CCCO2` it is 140 °C.

As to `O=C1CC(C(=O)Nc2ccccc2O)CN1` (configuration not stated), the melting point is 133 to 135 °C. The figure for `Cc1ccc2c(c1)C=Cc1cc(C)ccc1C2c1cn(-c2ccnc(N3CCC[C@H]3C(=O)O)n2)c(=O)[nH]c1=O` is 200 to 205 °C; for `Nc1nc(Cl)nc2c1ncn2C1CCCCC1` it is 206 to 209 °C; for `O=C1C2CC3CC1CC(c1cc(Br)ccc1OCc1ccccc1)(C3)C2` it is 163 to 165 °C. `CC1(C)COC(c2ccccc2C2Oc3cccc(F)c3C(=O)C2=Cc2ccccc2)=N1` (configuration not stated) had a melting point of 110 to 112 °C.

With `COc1ccc2c(c1)Sc1ccc(SC)cc1C(=O)C2`, the melting point worked out at 127 °C. In the case of `Clc1ccc(-c2n[nH]c(-c3ccncc3)n2)cc1` it was 264 to 266 °C; in that of `CN1CCN(c2cccc(-c3cnn4c(N)c(Cc5cccc(Br)c5)cnc34)c2)CC1`, 170 to 171 °C; in that of `CCCc1ccc(-c2nc(C)c(C(C)=NNC(=N)N)s2)cc1`, 256 to 257 °C. In the case of `CC(C)(C)OC(=O)[C@@H](CCCOS(=O)(=O)c1ccc2ccccc2c1)C[C@H](NC(c1ccccc1)(c1ccccc1)c1ccccc1)C(=O)OC(C)(C)C`, the melting point amounted to 119 °C.

The compound `Cc1c(C(=O)O)ccn2nc(-c3ccccc3)nc12` gave a melting point greater than 250 °C.

`CC(C)Cc1ccc2sc3cc(CC(=O)O)ccc3c2c1` yielded a melting point of 133 to 135 °C. In the case of `CC#CC(=O)c1c(-c2ccc(F)cc2)nn2c(Cl)cccc12` it was 182 to 183 °C; in that of `N#CC(O)C(Cc1ccccc1)N1C(=O)c2ccccc2C1=O` (configuration not stated), 128 to 132 °C.

`Cc1nnc(C(=O)CCCCCCOc2ccccc2)o1` came in with a melting point of 75 to 77 °C. In the case of `CCOC(=O)c1ccccc1NC(=O)CBr` it was 65 to 66 °C; in that of `Cc1c(-c2cccnc2)n(CCCCCCCC(=O)O)c2ccccc12`, 110 to 113 °C. In the case of `O=C(CCC1CCCCCCCCCCC1=O)C1=C(O)CSC1=O` (configuration not stated) it was 93 to 95 °C. In the case of `CCCCNC(=O)OC1c2cc(C(F)(F)F)ccc2C(=O)N1c1ccc2ccc(Cl)nc2n1` (configuration not stated) it was 120 °C; in that of `O=c1[nH]c2ccccc2n1CCCN1CCC(O)(c2ccc(F)cc2)CC1`, 135 °C. With `CCCC1=C(C(=O)OCC)C(c2ccccc2OC2CCCC2)c2c[nH]nc2N1` (configuration not stated), the melting point is 195 °C. The figure for `O=C1C2=C(C=CCN2)CCc2ccc(F)cc21` is 78 to 81 °C. In the case of `Cn1cc(C2=C(c3c4n(c5ccccc35)CCC(CNC(=O)c3ccccc3)C4)C(=O)NC2=O)c2ccccc21` (configuration not stated) it was 297 to 303 °C. The figure for `COc1ccc(CN2CCC(c3ccc(-c4cccc(N)n4)cc3)CC2)cc1OC` is 150 to 165 °C.

Turning to `CC(=O)Nc1ccc(N=O)cc1`, the melting point was 179 to 180 °C. The figure for `CC(=O)OCC(=O)C1(OC(C)=O)CCC2C3CC(C)C4=CC(=O)C=CC4(C)C3C(O)CC21C` (configuration not stated) is 216 °C. In the case of `O=C(CCCl)Nc1ccc2c(c1)C(=O)c1cc(NC(=O)CCCl)ccc1C2=O` it was 281 °C; in that of `Cc1nn(-c2ccccn2)c2c1c(=O)c1ccccc1n2C`, 192 to 193 °C; in that of `Cc1ccc(-c2nccc3c(CO)cccc23)cc1`, 195 °C. In the case of `CN(C)C(=O)N(Cc1ccccc1)C(=O)c1cccc(-c2nc(=O)c3ccccc3s2)n1` it was 222 to 224 °C; in that of `CC(C)(C)OC(=O)[C@H]1CC[C@@H](c2ccccn2)N1C(=O)CNC(=O)Nc1cccc(C(=O)O)c1` (racemic), 174 °C; in that of `COC(=O)CCNC(=O)c1ccc2c(c1)nc(-c1ccc(C#N)cc1)n2CCC(c1ccccc1)c1ccccc1`, 157 to 159 °C. Compound `COc1ccc(C(=O)c2cccn2C)cc1` displayed a melting point of 66 to 68 °C. On to `CCOC(=O)/C=C/c1cn(-c2ccc(C(F)(F)F)cn2)nc1C1CCCCC1`, for which the melting point was 132 to 133 °C. The figure for `CCN(CCC(=O)O)C(=S)Nc1c(C)cccc1C` is 115 to 118 °C. The figure for `CCCCCCNc1ncnc2c1ncn2C1CC(F)C(CO)O1` (configuration not stated) is 83 °C. In the case of `O=C(O)CC1CCC2(CC1)OOC1(O2)C2CC3CC(C2)CC1C3` (configuration not stated) it was 146 to 148 °C.

As for `CCCCCCCCCCCCOc1cc(O)c(C(=O)c2ccccc2)c(OCCCCCCCCCCCC)c1`, the melting point is 37 to 38 °C. In the case of `N#Cc1c(-c2ccc(Cl)cc2)[nH]c(C(F)(F)F)c1C(F)(F)F` it was 208 °C; in that of `CN(Cc1ccc(OC(F)(F)F)cc1)C(=O)OC[C@@]1(C)Cn2cc([N+](=O)[O-])nc2O1`, 123 to 124 °C; in that of `CC(C)(C)OC(=O)Nc1cc(-c2nnc(SCc3cccc(F)c3)o2)ccn1`, 237 to 238 °C. In the case of `COC(=O)C(=O)NC1CC(C)(C)N(OC2CCCCC2)C(C)(C)C1` it was 124 to 126 °C; in that of `COc1ccc(C)cc1NC(=O)Nc1ccc(N2CCN(C(=O)Nc3ccc(CO)cc3Cl)CC2)cc1`, 152 to 155 °C. The figure for `Cc1ccc(F)cc1C(=O)Nc1ccc(C(=O)N2Cc3ccnn3Cc3ccccc32)c(Cl)c1` is 137 to 140 °C; for `CCCCCNC(=O)CC(c1ccc(OC)c(OC)c1)N1C(=O)c2ccccc2C1=O` (configuration not stated) it is 140 to 142 °C. Regarding `CCOC(=O)c1ccc(/C=C(\C)c2ccc3c(c2)CCCCO3)cc1`, the melting point was 60 to 61 °C. The figure for `CCOC(=O)C(=CNC1CC1)C(=O)c1c(C)c(F)c(F)c(F)c1F` is 72 to 74 °C; for `CC(=O)OC1CSC(Oc2ccccc2[N+](=O)[O-])C(OC(C)=O)C1OC(C)=O` (configuration not stated) it is 148 °C. The figure for `N=C(O)c1cc(C(O)=NCCS)c(C(=O)O)cc1C(=O)O` is 300 °C; for `O=c1[nH]ccc2nc(C(F)(F)F)nn12` it is 203 to 205 °C; for `Nc1ccccc1NC(=O)CCN1CCN(c2cccc(C(F)(F)F)c2)CC1` it is 194 to 196 °C. As for `CN1C(=O)N(c2cc(Cl)cc(Cl)c2)C(=O)[C@]12CN(Cc1ccccc1)C[C@H]2c1ccc(-c2cncnc2)cc1` (relative stereo), the melting point worked out at 228 °C. In the case of `O=C(O)CCC/C=C\CN1C(=O)c2ccccc2C1=O` it was 86 to 88 °C.

`Cc1ccsc1-c1cncc(Br)c1`: the melting point was 58 to 59 °C.

Turning to `CC(C)(C)c1ccc(-c2nnc(-c3ccc(C(=O)O)cc3N)o2)cc1`, the melting point is 266 to 268 °C. In the case of `OC1CSC(Oc2cncc(-c3ccnc(F)c3)c2)C(O)C1O` (configuration not stated) it was 208 °C. In the case of `COc1ccc2[nH]c(SCc3cc(N)c(Br)cn3)nc2c1` it was 183 to 184 °C; in that of `CC(=O)Oc1ccc(C(=O)NOCc2ccccc2)cc1`, 120 to 122 °C. As to `CCCCCCCCCCCCCC(=O)Nc1ccc(C2=NNC(=O)NC2C)cc1` (configuration not stated), the melting point was 206 to 209 °C. The figure for `COc1ccc(C2(O)OC(=O)C(c3ccc4nsnc4c3)=C2Cc2cc(OC)c(OC3CCCC3)c(OC)c2)cc1` (configuration not stated) is 40 to 41 °C. Consider `CCCCn1c(=O)[nH]c2cccc(OCC3CO3)c21` (configuration not stated), for which the melting point was 226 to 227 °C. The figure for `COc1cc(C(C)C(=O)NCC(COC(=O)C(C)(C)C)Cc2ccc(C(C)(C)C)cc2)ccc1NS(C)(=O)=O` (configuration not stated) is 54 to 57 °C; for `CC(C)(C)OC(=O)Nc1ccc(-c2cccc(F)c2)cc1N` it is 125 to 128 °C; for `COC(=O)c1ccc(-c2cc3c(Nc4cccc(Cl)c4)ncnc3[nH]2)cc1` it is greater than 300 °C. In the case of `CC(C)(C)c1cc(C=C2SC(=S)N(C3CC3)C2=O)cc(C(C)(C)C)c1O` it was 158 to 168 °C; in that of `Cc1cnc(N2CCN(c3ccc([N+](=O)[O-])cc3)CC2)n1C`, 204 to 205 °C; in that of `Clc1cc(CCc2ccccn2)c2oc(-c3cnc4ccccc4c3)nc2c1`, 124 to 125 °C.

For `Nc1ccc(OC(F)(F)F)cc1`, the melting point turned out to be 63.5 °C.

`COC(=O)C(=O)Nc1ccccc1C(C)(C)C` gave a melting point of 61.7 to 63.6 °C. The figure for `Cc1[nH]c(=O)[nH]c1C(=O)Cc1ccccc1` is 239 to 240 °C.

The compound `COc1ccc(-c2cc(=O)cc(C(N)=O)o2)cc1` returned a melting point of 303 to 308 °C.

`COc1cc(C(=O)N2Cc3ccc(C(=O)NCc4ccccc4C)n3Cc3ccccc32)ccc1-c1ccccc1C` returned a melting point of 204 °C. The figure for `COc1cccc(CN2Cc3cc(OC)c(OCc4ccccc4)cc3C(O)C2)c1` (configuration not stated) is 115 to 116 °C.
